Measurements taken from PubChem BioAssay (NCI).
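How tested: cells in 96-well plates exposed to compound for 48 hours at five concentrations. TGI: concentration producing complete growth inhibition.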

Legend:
Experiment in all cases: NCI anticancer screen, dose series, 48 h
SK-OV-3 ovarian = system: SK-OV-3 ovarian
U251 CNS = system: U251 CNS
COLO 205 colon = system: COLO 205 colon
DU-145 prostate = system: DU-145 prostate
MDA-MB-435 = system: MDA-MB-435
OVCAR-4 ovarian = system: OVCAR-4 ovarian
SF-539 CNS = system: SF-539 CNS
HCC-2998 colon = system: HCC-2998 colon
NCI-H460 lung = system: NCI-H460 lung
K-562 leukemia = system: K-562 leukemia
RPMI-8226 leukemia = system: RPMI-8226 leukemia
UACC-257 melanoma = system: UACC-257 melanoma
MDA-MB-231 breast = system: MDA-MB-231 breast
NCI-H226 lung = system: NCI-H226 lung
NCI/ADR-RES ovarian = system: NCI/ADR-RES ovarian
UO-31 renal = system: UO-31 renal
EKVX NSCLC = system: EKVX NSCLC
HT29 colon = system: HT29 colon
HCT-15 colon = system: HCT-15 colon
SK-MEL-28 melanoma = system: SK-MEL-28 melanoma
SK-MEL-5 melanoma = system: SK-MEL-5 melanoma
HL-60(TB) leukemia = system: HL-60(TB) leukemia
OVCAR-8 ovarian = system: OVCAR-8 ovarian
SN12C renal = system: SN12C renal
ACHN renal = system: ACHN renal
SK-MEL-2 melanoma = system: SK-MEL-2 melanoma
HOP-92 NSCLC = system: HOP-92 NSCLC
MDA-N = system: MDA-N
HCT-116 colon = system: HCT-116 colon
SF-295 CNS = system: SF-295 CNS
NCI-H23 lung = system: NCI-H23 lung
KM12 colon = system: KM12 colon
BT-549 breast = system: BT-549 breast
IGROV1 ovarian = system: IGROV1 ovarian
HS 578T breast = system: HS 578T breast
MCF7 breast = system: MCF7 breast
SW-620 colon = system: SW-620 colon
TK-10 renal = system: TK-10 renal
RXF 393 renal = system: RXF 393 renal
HOP-62 NSCLC = system: HOP-62 NSCLC
SNB-75 CNS = system: SNB-75 CNS
786-0 renal = system: 786-0 renal
SF-268 CNS = system: SF-268 CNS
A549 NSCLC = system: A549 NSCLC
M14 melanoma = system: M14 melanoma
SNB-19 CNS = system: SNB-19 CNS
OVCAR-5 ovarian = system: OVCAR-5 ovarian
A498 renal = system: A498 renal
MOLT-4 leukemia = system: MOLT-4 leukemia
UACC-62 melanoma = system: UACC-62 melanoma
OVCAR-3 ovarian = system: OVCAR-3 ovarian
T-47D breast = system: T-47D breast
PC-3 prostate = system: PC-3 prostate
NCI-H522 lung = system: NCI-H522 lung
CAKI-1 renal = system: CAKI-1 renal
CCRF-CEM leukemia = system: CCRF-CEM leukemia
MALME-3M melanoma = system: MALME-3M melanoma
LOX IMVI melanoma = system: LOX IMVI melanoma

Measured: TGI

COc1ccccc1N1C(=O)CSC1c1c[nH]c2ccccc12 (stereo not drawn)
not listed: PC-3 prostate | NCI-H522 lung | CAKI-1 renal | CCRF-CEM leukemia | MALME-3M melanoma | LOX IMVI melanoma
> 100 µM: all other assays above

Cc1cn(CCCC2=NCCCN2)c(=O)[nH]c1=O
not listed: HL-60(TB) leukemia | BT-549 breast
> 100 µM: all other assays above
